Literature values in publication PMC9329312, “Decoding kinase-adverse event associations for small molecule kinase inhibitors” (Nature Communications, 2022).

Conditions: ref FAERS

CCOc1cc2ncc(C#N)c(Nc3ccc(OCc4ccccn4)c(Cl)c3)c2cc1NC(=O)/C=C/CN(C)C [neratinib]
Drug resistance, % of Cases: 0.15% | Drug titration, % of Cases: 2.1% | Dry eye, % of Cases: 0.3% | Dry mouth, % of Cases: 2.7% | Dry skin, % of Cases: 2.0% | Dry throat, % of Cases: 0.075% | Duodenal ulcer, % of Cases: 0.15% | Dysarthria, % of Cases: 0.075% | Dysgeusia, % of Cases: 0.45% | Dyspepsia, % of Cases: 4.4% | Dysphagia, % of Cases: 0.5% | Dysphemia, % of Cases: 0.075% | Dysphonia, % of Cases: 0.15% | Dyspnoea exertional, % of Cases: 0.075% | Dyspnoea, % of Cases: 1.7% | Dysstasia, % of Cases: 0.075% | Dysuria, % of Cases: 0.75% | Ear infection, % of Cases: 0.15% | Ear pain, % of Cases: 0.075% | Early satiety, % of Cases: 0.225% | Eating disorder, % of Cases: 0.15% | Ecchymosis, % of Cases: 0.075% | Eczema, % of Cases: 0.075% | Ejection fraction decreased, % of Cases: 0.15% | Electrocardiogram QT prolonged, % of Cases: 0.075% | Electrolyte imbalance, % of Cases: 0.225% | Emergency care, % of Cases: 0.7% | Energy increased, % of Cases: 0.075% | Enteritis, % of Cases: 0.075% | Eosinophil count increased, % of Cases: 0.075% | Epinephrine abnormal, % of Cases: 0.075% | Epistaxis, % of Cases: 1.2% | Eructation, % of Cases: 0.375% | Erythema, % of Cases: 0.5% | Escherichia sepsis, % of Cases: 0.075% | Escherichia urinary tract infection, % of Cases: 0.075% | Exfoliative rash, % of Cases: 0.075% | Eye discharge, % of Cases: 0.225% | Eye infection, % of Cases: 0.075% | Eye irritation, % of Cases: 0.075% | Eye pain, % of Cases: 0.075% | Eye pruritus, % of Cases: 0.15% | Eyelid margin crusting, % of Cases: 0.075% | Facial pain, % of Cases: 0.075% | Facial paralysis, % of Cases: 0.075% | Faecaloma, % of Cases: 0.075% | Faeces discoloured, % of Cases: 0.075% | Faeces hard, % of Cases: 0.075% | Faeces pale, % of Cases: 0.225% | Faeces soft, % of Cases: 0.45% | Failure to thrive, % of Cases: 0.075% | Fall, % of Cases: 0.75% | Fatigue, % of Cases: 25.2% | Febrile neutropenia, % of Cases: 0.075% | Feeding disorder, % of Cases: 0.375% | Feeling abnormal, % of Cases: 1.5% | Feeling jittery, % of Cases: 0.15% | Fibromyalgia, % of Cases: 0.075% | Flank pain, % of Cases: 0.075% | Flatulence, % of Cases: 1.7% | Fluid retention, % of Cases: 0.225% | Flushing, % of Cases: 0.075% | Food aversion, % of Cases: 0.075% | Food craving, % of Cases: 0.075% | Food poisoning, % of Cases: 0.075% | Fracture, % of Cases: 0.075% | Frustration tolerance decreased, % of Cases: 0.075% | Full blood count abnormal, % of Cases: 0.225% | Fungal infection, % of Cases: 0.075% | Furuncle, % of Cases: 0.075% | Gait disturbance, % of Cases: 0.5% | Gait inability, % of Cases: 0.075% | Gastric cancer stage IV, % of Cases: 0.075% | Gastric dilatation, % of Cases: 0.075% | Gastric disorder, % of Cases: 0.3% | Gastric neoplasm, % of Cases: 0.075% | Gastric ulcer haemorrhage, % of Cases: 0.075% | Gastritis, % of Cases: 0.3% | Gastroenteritis norovirus, % of Cases: 0.075% | Gastroenteritis viral, % of Cases: 0.375% | Gastroenteritis, % of Cases: 0.075% | Gastrointestinal disorder, % of Cases: 0.225% | Gastrointestinal haemorrhage, % of Cases: 0.075% | Gastrointestinal infection, % of Cases: 0.075% | Gastrointestinal perforation, % of Cases: 0.075% | Gastrointestinal sounds abnormal, % of Cases: 0.5% | Gastrooesophageal reflux disease, % of Cases: 2.7% | Gastrostomy, % of Cases: 0.075% | Gingival bleeding, % of Cases: 0.075% | Gingivitis, % of Cases: 0.075% | Glomerular filtration rate decreased, % of Cases: 0.225% | Glossodynia, % of Cases: 0.075% | Glycosylated haemoglobin increased, % of Cases: 0.075% | Gout, % of Cases: 0.075% | Groin pain, % of Cases: 0.075% | Haematemesis, % of Cases: 0.3% | Haematochezia, % of Cases: 0.6% | Haematocrit decreased, % of Cases: 0.075% | Haemoglobin abnormal, % of Cases: 0.075% | Haemoglobin decreased, % of Cases: 0.45% | Haemorrhage, % of Cases: 0.375% | Haemorrhoidal haemorrhage, % of Cases: 0.075% | Haemorrhoids, % of Cases: 0.15% | Hair growth abnormal, % of Cases: 0.15% | Hair growth rate abnormal, % of Cases: 0.075% | Hair texture abnormal, % of Cases: 0.075% | Hallucination, % of Cases: 0.075% | Head and neck cancer, % of Cases: 0.075% | Head discomfort, % of Cases: 0.075% | Headache, % of Cases: 5.4% | Heart rate decreased, % of Cases: 0.075% | Heart rate increased, % of Cases: 0.5% | Helicobacter infection, % of Cases: 0.075% | Hepatic cyst, % of Cases: 0.075% | Hepatic enzyme abnormal, % of Cases: 0.075% | Hepatic enzyme increased, % of Cases: 1.5% | Hepatic failure, % of Cases: 0.15% | Hepatic function abnormal, % of Cases: 0.075% | Hepatic steatosis, % of Cases: 0.075% | Hepatitis, % of Cases: 0.3% | Hepatomegaly, % of Cases: 0.075% | Hepatotoxicity, % of Cases: 0.075% | Hernia, % of Cases: 0.075% | Herpes zoster, % of Cases: 0.15% | Hiccups, % of Cases: 0.15% | Hip arthroplasty, % of Cases: 0.075% | Hordeolum, % of Cases: 0.15% | Hospice care, % of Cases: 0.7% | Hospitalisation, % of Cases: 5.3% | Hot flush, % of Cases: 0.6% | Human epidermal growth factor receptor negative, % of Cases: 0.075% | Hydrocephalus, % of Cases: 0.075% | Hyperbilirubinaemia, % of Cases: 0.075% | Hyperchlorhydria, % of Cases: 0.15% | Hyperglycaemia, % of Cases: 0.225% | Hyperhidrosis, % of Cases: 0.075% | Hypersensitivity, % of Cases: 0.5% | Hypersomnia, % of Cases: 0.075% | Hypertension, % of Cases: 0.15% | Hypoaesthesia oral, % of Cases: 0.15% | Hypoaesthesia, % of Cases: 1.0% | Hypogeusia, % of Cases: 0.075% | Hypokalaemia, % of Cases: 0.45% | Hypomagnesaemia, % of Cases: 0.075% | Hyponatraemia, % of Cases: 0.075% | Hypophagia, % of Cases: 0.15% | Hypophosphataemia, % of Cases: 0.075% | Hypotension, % of Cases: 0.6% | Hypovolaemia, % of Cases: 0.075% | Hypoxia, % of Cases: 0.15% | Hysterectomy, % of Cases: 0.15% | Illness, % of Cases: 1.7% | Impaired driving ability, % of Cases: 0.075% | Impaired healing, % of Cases: 0.15% | Impaired quality of life, % of Cases: 0.375% | Implantable defibrillator insertion, % of Cases: 0.075% | Inappropriate schedule of product administration, % of Cases: 0.45% | Incision site abscess, % of Cases: 0.075% | Incorrect dosage administered, % of Cases: 0.075% | Incorrect dose administered, % of Cases: 1.7% | Increased appetite, % of Cases: 0.075% | Infection, % of Cases: 0.6% | Influenza like illness, % of Cases: 0.3% | Influenza, % of Cases: 0.7% | Infrequent bowel movements, % of Cases: 0.075% | Insomnia, % of Cases: 1.2% | Intensive care, % of Cases: 0.075% | Intentional dose omission, % of Cases: 0.225% | Intentional product use issue, % of Cases: 0.15% | Intentional underdose, % of Cases: 0.15% | Intervertebral disc protrusion, % of Cases: 0.075% | Intestinal haemorrhage, % of Cases: 0.075% | Intestinal obstruction, % of Cases: 0.075%
